Inhibition data for 17 molecules are collected here from patent US20110281812A1, “Compounds” (priority 2009, published 2011).

Usually inhibition stands for the relative decrease from the control value, in per cent.

SMILES strings stand for the structures.

The assay concerns IL-6 production in LPS-stimulated murine spleenocytes. Briefly: Inhibition of IL-6 production in LPS-stimulated murine spleenocytes in vitro. It is filed as cell-based. To be noted: Mus musculus, 50 μM concentration of the compound, read-out: inhibition of interleukin-6 (IL-6) production. As to the method:
Test and reference substances used in an in vitro assays were dissolved in dimethyl sulfoxide (DMSO) (Sigma Chemical Co., USA) at a concentration of 50 mM and were further diluted to test concentrations in appropriate cell culture medium.
After cervical dislocation, mouse spleens were removed using sterile dissection tools. Spleens were transferred to a pre-wetted cell strainer in a 50 mL sterile conical tube and cell suspension was made by gentle puddle. Cells were centrifuged (20 min, 300×g) and resuspended in 2 mL of sterile phosphate buffered saline (PBS) (Sigma Chemical Co., USA). Red blood cells were lysed by addition of 3 mL of sterile water and occasionally gentle shaking for 1 minute. Afterwards, the tube was filled to 40 mL with DMEM medium and centrifuged (20 min, 300×g). Cells were resuspended in DMEM supplemented with 1% FBS and seeded in a 24-well plate, 1×10^6 cells per mL medium.
Final concentrations of 50 μM, 25 μM, 12.5 μM, 6.3 μM and 3.1 μM of test compounds were prepared by diluting a 50 mM DMSO stock in Dulbecco's modified Eagle medium (DMEM) (Gibco, USA) supplemented with 1% heat inactivated fetal bovine serum (FBS) (BioWest, Ringmer, United Kingdom).
Cells were pre-incubated with the test compounds for 3 h at 37° C., in an atmosphere of 5% CO2 and 90% humidity. Afterwards, cells were stimulated with 1 μg/mL lipopolysaccharide (LPS, E. coli 0111:B4, Sigma Chemical Co., USA) and incubated overnight. Concentration of IL-6 was determined in cell supernatants by sandwich ELISA using capture and detection antibodies (R&D Systems, USA) according to the manufacturer's recommendations.
Inhibition (as percentage) was calculated using the following formula:
% inhibition=[1−(concentration of IL-6 in sample−concentration of IL-6 in negative control)/(concentration of IL-6 in positive control−concentration of IL-6 in negative control)]×100.
The positive control refers to LPS-stimulated samples that were not preincubated with the compounds.
The negative control refers to unstimulated and untreated samples.
Turning to `CC[C@H]1OC(=O)[C@H](C)[C@@H](O[C@H]2C[C@@](C)(OC)[C@@H](O)[C@H](C)O2)[C@H](C)[C@@H](O[C@@H]2O[C@H](C)C[C@H](N(C)C)[C@H]2OCCCNC(C)=O)[C@](C)(O)C[C@@H](C)CN(C)[C@H](C)[C@@H](O)[C@]1(C)O` [Example 1, 2′-O[3-(Acetylamino)propyl]-9-deoxo-9a-methyl-9a-aza-9a-homoerythromycin A], the inhibition at 50 µM was over 40%.

Consider `CC[C@H]1OC(=O)[C@H](C)[C@@H](O[C@H]2C[C@@](C)(OC)[C@@H](O)[C@H](C)O2)[C@H](C)[C@@H](O[C@@H]2O[C@H](C)C[C@H](N(C)C)[C@H]2OCCCNC(=O)C(C)C)[C@](C)(O)C[C@@H](C)CN(C)[C@H](C)[C@@H](O)[C@]1(C)O` [Example 3, 2′-O-{3-[(2-Methylpropanoyl)amino]propyl}-9-deoxo-9a-methyl-9a-aza-9a-homoerythromycin A], for which the inhibition at 50 µM is over 40%. As for `CC[C@H]1OC(=O)[C@H](C)[C@@H](O[C@H]2C[C@@](C)(OC)[C@@H](O)[C@H](C)O2)[C@H](C)[C@@H](O[C@@H]2O[C@H](C)C[C@H](N(C)C)[C@H]2OCCCNC(=O)C(C)(C)C)[C@](C)(O)C[C@@H](C)CN(C)[C@H](C)[C@@H](O)[C@]1(C)O` [Example 4, 2′-O-{3-[(2,2-Dimethylpropanoyl)amino]propyl}-9-deoxo-9a-methyl-9a-aza-9a-homoerythromycin A], the figure is over 40%; as for `CC[C@H]1OC(=O)[C@H](C)[C@@H](O[C@H]2C[C@@](C)(OC)[C@@H](O)[C@H](C)O2)[C@H](C)[C@@H](O[C@@H]2O[C@H](C)C[C@H](N(C)C)[C@H]2OCCCNC(=O)CN(CC)CC)[C@](C)(O)C[C@@H](C)CN(C)[C@H](C)[C@@H](O)[C@]1(C)O` [Example 5, 2′-O-{3-[(N,N-Diethylglycyl)amino]propyl}-9-deoxo-9a-methyl-9a-aza-9a-homoerythromycin A], over 40%. As for `CC[C@H]1OC(=O)[C@H](C)[C@@H](O[C@H]2C[C@@](C)(OC)[C@@H](O)[C@H](C)O2)[C@H](C)[C@@H](O[C@@H]2O[C@H](C)C[C@H](N(C)C)[C@H]2OCCCNC(=O)c2ccncc2)[C@](C)(O)C[C@@H](C)CN(C)[C@H](C)[C@@H](O)[C@]1(C)O` [Example 6, 2′-O-{3-[(4-Pyridinylcarbonyl)amino]propyl}-9-deoxo-9a-methyl-9a-aza-9a-homoerythromycin A], the figure is over 40%. As for `CC[C@H]1OC(=O)[C@H](C)[C@@H](O[C@H]2C[C@@](C)(OC)[C@@H](O)[C@H](C)O2)[C@H](C)[C@@H](O[C@@H]2O[C@H](C)C[C@H](N(C)C)[C@H]2OCCCNC(=O)[C@@H](N)Cc2ccccc2)[C@](C)(O)C[C@@H](C)CN(C)[C@H](C)[C@@H](O)[C@]1(C)O` [Example 10, 2′-O-[3-(L-phenylalanylamino)propyl]-9-deoxo-9a-methyl-9a-aza-9a-homoerythromycin A], the figure is over 40%; as for `CC[C@H](C)[C@H](N)C(=O)NCCCO[C@H]1[C@H](O[C@@H]2[C@@H](C)[C@H](O[C@H]3C[C@@](C)(OC)[C@@H](O)[C@H](C)O3)[C@@H](C)C(=O)O[C@H](CC)[C@@](C)(O)[C@H](O)[C@@H](C)N(C)C[C@H](C)C[C@@]2(C)O)O[C@H](C)C[C@@H]1N(C)C` [Example 11, 2′-O-[3-(L-isoleucylamino)propyl]-9-deoxo-9a-methyl-9a-aza-9a-homoerythromycin A], over 40%. Turning to `CC[C@H]1OC(=O)[C@H](C)[C@@H](O[C@H]2C[C@@](C)(OC)[C@@H](O)[C@H](C)O2)[C@H](C)[C@@H](O[C@@H]2O[C@H](C)C[C@H](N(C)C)[C@H]2OCCCNC(=O)[C@@H](N)CCSC)[C@](C)(O)C[C@@H](C)CN(C)[C@H](C)[C@@H](O)[C@]1(C)O` [Example 12, 2′-O-[3-(L-methionylamino)propyl]-9-deoxo-9a-methyl-9a-aza-9a-homoerythromycin A], the inhibition at 50 µM is over 40%. As for `CC[C@H]1OC(=O)[C@H](C)[C@@H](O[C@H]2C[C@@](C)(OC)[C@@H](O)[C@H](C)O2)[C@H](C)[C@@H](O[C@@H]2O[C@H](C)C[C@H](N(C)C)[C@H]2OCCCNC(=O)c2cnccn2)[C@](C)(O)C[C@@H](C)CN(C)[C@H](C)[C@@H](O)[C@]1(C)O` [Example 23, 2′-O-{3-[(2-Pyrazinylcarbonyl)amino]propyl}-9-deoxo-9a-methyl-9a-aza-9a-homoerythromycin A], the figure is over 40%. For `CC[C@H]1OC(=O)[C@H](C)[C@@H](O[C@H]2C[C@@](C)(OC)[C@@H](O)[C@H](C)O2)[C@H](C)[C@@H](O[C@@H]2O[C@H](C)C[C@H](N(C)C)[C@H]2OCCCNC(=O)c2cc(C)oc2C)[C@](C)(O)C[C@@H](C)CN(C)[C@H](C)[C@@H](O)[C@]1(C)O` [Example 24, 2′-O-(3-{[(2,5-Dimethyl-3-furanyl)carbonyl]amino}propyl)-9-deoxo-9a-methyl-9a-aza-9a-homoerythromycin A] the value was over 40%.

On to `CC[C@H]1OC(=O)[C@H](C)[C@@H](O[C@H]2C[C@@](C)(OC)[C@@H](O)[C@H](C)O2)[C@H](C)[C@@H](O[C@@H]2O[C@H](C)C[C@H](N(C)C)[C@H]2OCCCNC(=O)c2cc(C)n(C)c2C)[C@](C)(O)C[C@@H](C)CN(C)[C@H](C)[C@@H](O)[C@]1(C)O` [Example 26, 2′-O-(3-{[(1,2,5-Trimethyl-1H-pyrrol-3-yl)carbonyl]amino}propyl)-9-deoxo-9a-methyl-9a-aza-9a-homoerythromycin A], for which the inhibition at 50 µM is over 40%. As for `CC[C@H]1OC(=O)[C@H](C)[C@@H](O[C@H]2C[C@@](C)(OC)[C@@H](O)[C@H](C)O2)[C@H](C)[C@@H](O[C@@H]2O[C@H](C)C[C@H](N(C)C)[C@H]2OCCCNC(=O)c2cncn2C)[C@](C)(O)C[C@@H](C)CN(C)[C@H](C)[C@@H](O)[C@]1(C)O` [Example 27, 2′-O-(3-{[(1-Methyl-1H-imidazol-5-yl)carbonyl]amino}propyl)-9-deoxo-9a-methyl-9a-aza-9a-homoerythromycin A], the inhibition at 50 µM was over 40%. In the case of `CC[C@H]1OC(=O)[C@H](C)[C@@H](O[C@H]2C[C@@](C)(OC)[C@@H](O)[C@H](C)O2)[C@H](C)[C@@H](O[C@@H]2O[C@H](C)C[C@H](N(C)C)[C@H]2OCCCNC(=O)c2cn(C)nc2C(F)(F)F)[C@](C)(O)C[C@@H](C)CN(C)[C@H](C)[C@@H](O)[C@]1(C)O` [Example 28, 2′-O-[3-({[1-Methyl-3-(trifluoromethyl)-1H-pyrazol-4-yl]carbonyl}amino)propyl]-9-deoxo-9a-methyl-9a-aza-9a-homoerythromycin A], the inhibition at 50 µM was over 40%.

Take `CC[C@H]1OC(=O)[C@H](C)[C@@H](O[C@H]2C[C@@](C)(OC)[C@@H](O)[C@H](C)O2)[C@H](C)[C@@H](O[C@@H]2O[C@H](C)C[C@H](N(C)C)[C@H]2OCCCNC(=O)c2ccc(Cl)cc2)[C@](C)(O)C[C@@H](C)CN(C)[C@H](C)[C@@H](O)[C@]1(C)O` [Example 29, 2′-O-(3-{[(4-Chlorophenyl)carbonyl]amino}propyl)-9-deoxo-9a-methyl-9a-aza-9a-homoerythromycin A]: the inhibition at 50 µM is over 40%. For `CC[C@H]1OC(=O)[C@H](C)[C@@H](O[C@H]2C[C@@](C)(OC)[C@@H](O)[C@H](C)O2)[C@H](C)[C@@H](O[C@@H]2O[C@H](C)C[C@H](N(C)C)[C@H]2OCCCNC(=O)c2ccccn2)[C@](C)(O)C[C@@H](C)CN(C)[C@H](C)[C@@H](O)[C@]1(C)O` [Example 31, 2′-O-{3-[(2-Pyridinylcarbonyl)amino]propyl}-9-deoxo-9a-methyl-9a-aza-9a-homoerythromycin A], the inhibition at 50 µM is over 40%. For `CC[C@H]1OC(=O)[C@H](C)[C@@H](O[C@H]2C[C@@](C)(OC)[C@@H](O)[C@H](C)O2)[C@H](C)[C@@H](O[C@@H]2O[C@H](C)C[C@H](N(C)C)[C@H]2OCCCNC(=O)c2cc(O)ccc2O)[C@](C)(O)C[C@@H](C)CN(C)[C@H](C)[C@@H](O)[C@]1(C)O` [Example 32, 2′-O-{3-[(2,5-Dihydroxyphenylcarbonyl)amino]propyl}-9-deoxo-9a-methyl-9a-aza-9a-homoerythromycin A] the value was over 40%.

`CC[C@H]1OC(=O)[C@H](C)[C@@H](O[C@H]2C[C@@](C)(OC)[C@@H](O)[C@H](C)O2)[C@H](C)[C@@H](O[C@@H]2O[C@H](C)C[C@H](N(C)C)[C@H]2OCCCNC(=O)c2ccc(N)cc2O)[C@](C)(O)C[C@@H](C)CN(C)[C@H](C)[C@@H](O)[C@]1(C)O` [Example 33, 2′-O-(3-{[(4-Amino-2-hydroxyphenyl)carbonyl]amino}propyl)-9-deoxo-9a-methyl-9a-aza-9a-homoerythromycin A]: the inhibition at 50 µM was over 40%.
